Results: patent US9592268B2, “Endothelium protective materials and methods of use” (CORNELL UNIVERSITY, priority 2011, dated 2017)

What was measured:
[1] = biological target: T1, murine recombinant apoM (r-apoM) (Mus musculus, UniProt Q9Z1R3); assay: intrinsic fluorescence quenching of r-apoM by S1P; type: binding; details: r-apoM 0.7 μM; S1P 0-3.2 μmol/L; excitation 295 nm, emission 345 nm
T1 construct: A truncated mouse r-apoM containing the lipocalin domain but lacking the hydrophobic signal peptide was produced in Escherichia coli; made in house; host or cells: Escherichia coli
Method: FIG. 3. […] A truncated mouse r-apoM containing the lipocalin domain but lacking the hydrophobic signal peptide was produced in Escherichia coli. The r-apoM (0.7 μM) was incubated with increasing concentrations of S1P (final concentration: 0-3.2 μmol/L). The intrinsic fluorescence of apoM was measured with excitation at 295 nm and emission at 345 nm. The data are mean±SEM (n=3).
Intrinsic fluorescence quenching was studied after addition of S1P to 0.7 μM murine recombinant apoM (r-apoM) (SEVVANA et al., J. Mol. Biol, 393:920-936 (2009)). Because it is possible that murine r-apoM binds and contains myristic acid in a manner similar to that of its human counterpart (SEVVANA et al., J. Mol. Biol, 393:920-936 (2009)), the binding data are reported as IC50 values. This approach also allows S1P binding to murine r-apoM to be compared directly with the previous data on human apoM-S1P binding.

[2] = biological target: T2, recombinant human apoM (Homo sapiens, UniProt O95445); details: recombinant human apoM expressed in E. coli; SEVVANA et al. 2009; read-out: IC50 for displacement of myristic acid from apoM; cited from earlier work
T2 construct: host or cells: E. coli

[3] = system: endogenous S1P1 receptor; assay: p44/42 and Akt activation in HUVEC (western blot, phospho-specific antibodies); type: cell-based, human; details: 1 μM VPC44116 pre-treatment 30 min
Method: (§1) FIG. 4. ApoM-bound S1P activates S1P1-mediated intracellular signaling pathways and affects migration of HUVEC. (A) Confocal microscopy of HEK293 cells stably expressing S1P1-GFP. Cells were serum starved, stimulated for 1 h with indicated ligands, fixed and imaged. ApoM^+HDL (equivalent to ˜100 nM S1P as determined by LC/MS/MS) or ApoM^−HDL was used at 100 μg/ml. Fatty acid free BSA and r-apoM were complexed with S1P and used at the final concentration of 100 nM (equimolar for both protein and lipid). Scale bar, 20 μm. […] Activation of p44/42, and Akt was examined by western blot analysis using phospho-specific antibodies. (C) HUVEC were serum starved and pre-treated with 1 μM VPC44116 for 30 min where indicated and subjected to migration assay with 10 μg/ml apoM^+HDL (10 nM S1P) or 10 μg/ml apoM^−HDL or 10 nM albumin-S1P. Data are mean±SD, n=3. * p<0.01. (D) Microscopy of HUVEC that were serum starved and stimulated with 100 μg/ml apoM^+HDL, apoM^−HDL, 100 nM albumin-S1P, r-apoM-S1P or 100 nM S1P-free r-apoM for 1 h. […] Scale bar, 20 μm. HUVEC were serum starved and stimulated for 5 min with 30 nM albumin-S1P, r-apoM-S1P, 10 μg/mL ApoM+ HDL, or 30 nM S1P-free r-apoM (E) or with increasing concentrations of albumin or r-apoM-S1P (F). […]
(§2) General Methods. […] Numerical differences were analyzed with two-tailed Student's t test. […]

[4] = system: HUVEC; assay: HUVEC migration (chemotaxis chamber) assay; type: cell-based, human
Method: as §1, with “μm.” for “μm. HUVEC were serum starved and stimulated for 5 min with 30 nM albumin-S1P, r-apoM-S1P, 10 μg/mL ApoM+ HDL, or 30 nM S1P-free r-apoM (E) or with increasing concentrations of albumin or r-apoM-S1P (F).”
General Methods. […] Numerical differences were analyzed with two-tailed Student's t test.
Migration Assays. […] The filter was scanned, and the color density of each well was quantified using ImageJ software. […]

[5] = biological target: T3, S1P1 receptor (Homo sapiens, UniProt P21453); assay: S1P1 internalization in HEK293 cells stably expressing S1P1-GFP; type: cell-based; details: stimulated 1 h; HDL 100 μg/ml; S1P complexes 100 nM
T3 construct: expressed in transfected cells
Method: as §1, §2

[6] = system: HUVEC; assay: adherens junction assembly assay (VE-cadherin immunostaining) in HUVEC; type: cell-based, human; details: HUVEC stimulated 1 h; HDL 100 μg/ml; S1P complexes or r-apoM 100 nM
Method: as §1, with “(F). Activation of p44/42 and Akt was examined by Western blot analysis using phospho-specific antibodies.” for “(F).”

T3 sequence (P21453 whole entry): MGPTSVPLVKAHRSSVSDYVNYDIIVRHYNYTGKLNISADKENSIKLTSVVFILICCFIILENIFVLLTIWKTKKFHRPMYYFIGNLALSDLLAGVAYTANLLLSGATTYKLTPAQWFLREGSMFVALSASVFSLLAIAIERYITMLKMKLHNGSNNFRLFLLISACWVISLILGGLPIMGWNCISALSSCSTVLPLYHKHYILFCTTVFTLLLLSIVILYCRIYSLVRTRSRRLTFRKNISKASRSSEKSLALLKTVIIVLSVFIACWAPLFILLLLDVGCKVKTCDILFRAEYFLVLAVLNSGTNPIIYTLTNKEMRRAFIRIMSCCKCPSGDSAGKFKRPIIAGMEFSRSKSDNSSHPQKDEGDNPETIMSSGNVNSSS
T1 sequence (Q9Z1R3 22-190): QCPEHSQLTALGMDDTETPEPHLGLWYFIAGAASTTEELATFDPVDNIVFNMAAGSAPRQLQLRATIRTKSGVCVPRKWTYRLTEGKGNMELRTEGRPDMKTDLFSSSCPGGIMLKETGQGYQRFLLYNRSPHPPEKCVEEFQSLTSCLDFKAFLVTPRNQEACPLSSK
T2 sequence (O95445 whole entry): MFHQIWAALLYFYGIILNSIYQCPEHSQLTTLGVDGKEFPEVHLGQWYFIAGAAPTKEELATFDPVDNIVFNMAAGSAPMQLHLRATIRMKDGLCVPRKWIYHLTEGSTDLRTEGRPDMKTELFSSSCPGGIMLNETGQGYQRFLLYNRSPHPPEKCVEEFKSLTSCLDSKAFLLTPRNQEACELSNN

Q: For CCCCCCCCCCCCC/C=C/[C@@H](O)[C@@H](N)COP(=O)(O)O [S1P, Sphingosine-1-phosphate], which “quenching of intrinsic fluorescence of mouse r-apoM” value [1] is on record?
A: quenches the intrinsic fluorescence

Q: And the IC50 [2]?
A: 0.9 µM

Q: With CCCCCCCCc1cccc(NC(=O)[C@H](N)CCP(=O)(O)O)c1 [VPC44116] as the molecule, how does the “effect of S1P1 antagonist on apoM+HDL-induced p44/42 and Akt phosphorylation” value [3] read?
A: essentially abolished

Q: What about the “effect of S1P1 antagonist on cells stimulated by FCS” value ([3]; FCS stimulation) of the same molecule?
A: no inhibitory effects

Q: And the “effect of S1P1 antagonist pre-treatment on apoM+HDL-stimulated chemotaxis” value ([4]; 1 μM VPC44116 for 30 min, 10 μg/ml apoM+HDL)?
A: abolished

Q: With “albumin-bound S1P: S1P complexed with equi-molar fatty acid free bovine serum albumin, used as a positive control [reference compound]” as the molecule, how does the “internalization of GFP-S1P1 receptor” value [5] read?
A: robust internalization

Q: And the “adherens junction and F-actin formation” value [6]?
A: well-spread, contained F-actin and formed adherens junctions

Q: What about the “chemotaxis of HUVEC toward chemoattractant” value ([4]; serum-starved HUVEC, 4 h at 37° C.) of the same molecule?
A: worked as chemoattractants in a concentration-dependent manner
